Experimental data: patent publication US20160137639A1, “TRIAZOLE-ISOXAZOLE COMPOUND AND MEDICAL USE THEREOF” (JAPAN TOBACCO INC., priority 2012, published 2016)
Read-outs that look alike come from different tables or passages of the source.

Tests used:
human RORγ = molecular target: T1, human RORγ (Homo sapiens, UniProt P51449); test: Luciferase reporter gene assay of inhibitory effect against RORγ transcriptional activity (GAL4-hRORγ plasmid in CHO cells); type: cell-based
T1 construct: human, NM_005060.3 and from Ser253 to Lys518; expressed in transfected cells; host or cells: CHO cells (transient co-transfection with pG5-Luc reporter)
T1 sequence (P51449 253-518): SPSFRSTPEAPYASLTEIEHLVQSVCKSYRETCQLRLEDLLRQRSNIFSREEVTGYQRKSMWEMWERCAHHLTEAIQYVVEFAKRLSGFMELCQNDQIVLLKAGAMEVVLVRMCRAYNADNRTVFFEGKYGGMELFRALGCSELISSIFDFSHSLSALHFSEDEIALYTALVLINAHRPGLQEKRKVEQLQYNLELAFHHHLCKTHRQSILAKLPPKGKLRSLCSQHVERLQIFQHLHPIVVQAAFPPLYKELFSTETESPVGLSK

mouse RORγ = molecular target: T2, mouse RORγ (Mus musculus, UniProt P51450); test: Luciferase reporter gene assay of inhibitory effect against RORγ transcriptional activity (GAL4-mRORγ plasmid in CHO cells); type: cell-based
T2 construct: mouse, NM_011281.2 and from Ile251 to Lys516; expressed in transfected cells; host or cells: CHO cells (transient co-transfection with pG5-Luc reporter)
T2 sequence (P51450 251-516): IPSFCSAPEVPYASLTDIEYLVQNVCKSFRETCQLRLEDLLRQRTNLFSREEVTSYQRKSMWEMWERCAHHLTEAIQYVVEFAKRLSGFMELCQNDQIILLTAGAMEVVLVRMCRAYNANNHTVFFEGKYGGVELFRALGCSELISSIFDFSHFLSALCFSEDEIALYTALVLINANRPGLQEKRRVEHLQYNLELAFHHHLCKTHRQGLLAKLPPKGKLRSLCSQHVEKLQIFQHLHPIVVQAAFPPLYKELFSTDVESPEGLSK
In short: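 Readout is intracellular luciferase after 2-day compound exposure (8 concentrations, 0.1% DMSO) in CHO cells expressing GAL4 fused to mouse RORγ LBD residues Ile251–Lys516 plus pG5-Luc reporter. EC50 fitted from %-of-control; points showing resazurin-detected cytotoxicity dropped.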

SMILES | EC50 (human RORγ; read-out: LUC EC50 hRORg) [µM] | EC50 (mouse RORγ; read-out: LUC EC50 mRORg) [µM] | EC50 (human RORγ; read-out: LUC EC50 (μM) hRORg) [µM] | EC50 (mouse RORγ; read-out: LUC EC50 (μM) mRORg) [µM]
Cc1ccc(NC(=O)[C@H]2CN(C)CC[C@@H]2c2nnc([C@H]3C[C@@H](CC(C)C)C3)n2C2CC2)c(C)c1 (racemic) [Example F-583] | < 3 | < 3 | – | –
Cc1ccc(NC(=O)[C@H]2CCCN(C(=O)CO)[C@@H]2c2nnc(CCCC(C)(C)C)n2C2CC2)c(C)c1 [Example F-308] | – | – | < 3 | < 3
Cc1ccc(NC(=O)C[C@H](CCc2nnn[nH]2)c2noc([C@H]3C[C@@H](CC(C)C)C3)c2C2CC2)c(C)c1 [Example F-644, (S)-3-[4-cyclopropyl-5-(3-isobutyl-cyclobutyl)-isoxazol-3-yl]-5-(1H-tetrazole-5-yl)-valeric acid (2,4-dimethyl-phenyl)-amide] | < 3 | < 3 | – | –
Cc1ccc(NC(=O)C[C@H](CCC(=O)O)c2noc(-c3cc(C(F)(F)CC(C)(C)C)on3)c2C2CC2)c(Cl)c1 [Example E-35] | – | – | < 3 | < 3
Cc1ccc(NC(=O)C(C)C(CCO)c2nnc([C@H]3C[C@@H](CC(C)C)C3)n2C2CC2)c(C)c1 (single isomer, unassigned) [Example F-493] | – | – | < 3 | < 3
Cc1ccc(NC(=O)C[C@H](CCC(=O)O)c2noc(-c3cc(C(C)(C)C)on3)c2C2CC2)c(Cl)c1 [Example E-43] | – | – | < 3 | < 3
Cc1ccc(NC(=O)C[C@H](CCC(=O)O)c2noc(-c3cc(C(F)(F)C4(C)CC4)on3)c2C2CC2)c(Cl)c1 [Example E-51] | – | – | < 3 | < 3
CCn1c(CCC(=O)Nc2ccc(C)cc2C)nnc1CCC(C)C [Example F-51] | – | – | > 3 | > 3
Cc1ccc(NC(=O)C[C@H](CC(C)C)c2nnc(-c3cc(CC(C)(C)C)on3)n2C2CC2)c(C)c1 [Example F-625] | < 3 | < 3 | – | –
COc1cc(C)ccc1CNC(=O)CCc1nnc(CCC2CCC(F)(F)CC2)n1C1CC1 [Example F-257] | – | – | < 3 | < 3
Cc1ccc(NC(=O)CCc2nnn(CCC3CCCCC3)c2C2CC2)c(C)c1 [Example F-443] | – | – | < 3 | < 3
Cc1ccc(NC(=O)C[C@H](CCC(=O)O)c2noc([C@H]3C[C@@H](CCc4ccccc4)C3)c2C2CC2)c(Cl)c1 [Example F-700] | < 3 | < 3 | – | –
Cc1cc(C(F)(F)F)ccc1NC(=O)C[C@H](CCO)c1nnc([C@H]2C[C@@H](CC(C)C)C2)n1C1CC1 [Example F-546] | < 3 | < 3 | – | –
Cc1cccc(CNC(=O)CCc2nnc(CCC(C)C)n2C2CC2)c1 [Example F-60] | – | – | > 3 | > 3
Cc1ccc(NC(=O)C[C@H](CCC(=O)O)c2noc3c2C(C)CCC3CCC(C)C)c(Cl)c1 (mixture of isomers) [Example F-691] | < 3 | < 3 | – | –
Cc1ccc(NC(=O)CC(Cc2nnn[nH]2)c2nnc([C@H]3C[C@@H](CC(C)C)C3)n2C2CC2)c(C)c1 (mixture of isomers) [Example F-481] | – | – | > 3 | > 3
CCn1c(CCC(=O)Nc2cccc3ccccc23)nnc1CCC(C)(C)C [Example F-25] | – | – | > 3 | < 3
CC1(Cc2cc(-c3onc([C@@H](CCC(=O)O)CC(=O)Nc4ccc(F)cc4Cl)c3C3CC3)no2)CC1 [Example E-63] | – | – | < 3 | < 3
Cc1ccc(NC(=O)CC(Cc2cccc(=O)[nH]2)c2nnc([C@H]3C[C@@H](CC(C)C)C3)n2C2CC2)c(C)c1 (mixture of isomers) [Example F-505] | < 3 | > 3 | – | –
Cc1ccc(NC(=O)C(C)C(CCO)c2nnc([C@H]3C[C@@H](CC(C)C)C3)n2C2CC2)c(C)c1 (single isomer, unassigned) [Example F-490] | – | – | > 3 | > 3
Cc1ccc(NC(=O)C[C@H](CCO)c2nnc(C3CC4(CCC(C)(C)CC4)C3)n2C2CC2)c(C)c1 [Example F-602] | < 3 | < 3 | – | –
CC(=O)N1C[C@H](C(=O)Nc2ccc(F)cc2C)[C@@H](c2nnc([C@H]3C[C@@H](CC(C)C)C3)n2C2CC2)C1 [Example F-600] | < 3 | < 3 | – | –
Cc1c(F)ccc(NC(=O)C[C@H](OCC(F)(F)F)c2nnc(-c3cc(CC(C)C)on3)n2C2CC2)c1C [Example F-634] | < 3 | < 3 | – | –
Cc1ccc(NC(=O)C[C@H](CCC(=O)O)c2noc(-c3cc(C4(CC(C)C)CC4)on3)c2C2CC2)c(Cl)c1 [Example E-23] | – | – | < 3 | < 3
